What all share (format): cell-based, murine
For one test, the target named is Ba/F3 EGFR Wild-type (Homo sapiens, UniProt P00533). The test can be described thus: CellTiter-Glo cell viability, Ba/F3 EGFR wild-type cells. Particulars: 72 hours, read-out: Ba/F3 EGFR mutant cell (IC50, nM) WT. Summed up: (§1)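 IC50 values derive from CellTiter-Glo luminescence measured after 72 hours of treatment of EGFR-dependent Ba/F3 cells, dosed at concentrations up to 2000 nM starting 24 hours after seeding.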

Test [1] concerns the target Ba/F3 EGFR L858R/C797S mutants (Homo sapiens, UniProt P00533, C797S/L858R, cells depend on it). Description: CellTiter-Glo cell viability, Ba/F3 EGFR L858R/C797S cells. Particulars: 72 hours, read-out: Ba/F3 EGFR mutant cell (IC50, nM) L/C. Summed up: as §1
The target in test [2] is Ba/F3 EGFR L858R/T790M/C797S mutants (Homo sapiens, UniProt P00533, T790M/C797S/L858R, cells depend on it). The test can be described thus: CellTiter-Glo cell viability, Ba/F3 EGFR L858R/T790M/C797S cells. As to conditions: 72 hours, read-out: Ba/F3 EGFR mutant cell (IC50, nM) L/T/C. The procedure, abridged:
as §1

Test [3] concerns the target Ba/F3 EGFR Del19/T790M mutants (Homo sapiens, UniProt P00533, T790M, cells depend on it, form not given). The test can be described thus: CellTiter-Glo cell viability, Ba/F3 EGFR Del19/T790M cells. Particulars: 72 hours, read-out: Ba/F3 EGFR mutant cell (IC50, nM) D/T. The procedure, abridged: as §1
Test [4] concerns the target Ba/F3 EGFR Del19/C797S mutants (Homo sapiens, UniProt P00533, C797S, cells depend on it, form not given). Description: CellTiter-Glo cell viability, Ba/F3 EGFR Del19/C797S cells. Particulars: 72 hours, read-out: Ba/F3 EGFR mutant cell (IC50, nM) D/C. Summed up: as §1
For test [5], the target named is Ba/F3 EGFR Del19/T790M/C797S mutants (Homo sapiens, UniProt P00533, T790M/C797S, cells depend on it, form not given). Description: CellTiter-Glo cell viability, Ba/F3 EGFR Del19/T790M/C797S cells. As to conditions: 72 hours, read-out: Ba/F3 EGFR mutant cell (IC50, nM) D/T/C. Summed up:
as §1

Chain of Ba/F3 EGFR L858R/C797S mutants (P00533 whole entry C797S/L858R): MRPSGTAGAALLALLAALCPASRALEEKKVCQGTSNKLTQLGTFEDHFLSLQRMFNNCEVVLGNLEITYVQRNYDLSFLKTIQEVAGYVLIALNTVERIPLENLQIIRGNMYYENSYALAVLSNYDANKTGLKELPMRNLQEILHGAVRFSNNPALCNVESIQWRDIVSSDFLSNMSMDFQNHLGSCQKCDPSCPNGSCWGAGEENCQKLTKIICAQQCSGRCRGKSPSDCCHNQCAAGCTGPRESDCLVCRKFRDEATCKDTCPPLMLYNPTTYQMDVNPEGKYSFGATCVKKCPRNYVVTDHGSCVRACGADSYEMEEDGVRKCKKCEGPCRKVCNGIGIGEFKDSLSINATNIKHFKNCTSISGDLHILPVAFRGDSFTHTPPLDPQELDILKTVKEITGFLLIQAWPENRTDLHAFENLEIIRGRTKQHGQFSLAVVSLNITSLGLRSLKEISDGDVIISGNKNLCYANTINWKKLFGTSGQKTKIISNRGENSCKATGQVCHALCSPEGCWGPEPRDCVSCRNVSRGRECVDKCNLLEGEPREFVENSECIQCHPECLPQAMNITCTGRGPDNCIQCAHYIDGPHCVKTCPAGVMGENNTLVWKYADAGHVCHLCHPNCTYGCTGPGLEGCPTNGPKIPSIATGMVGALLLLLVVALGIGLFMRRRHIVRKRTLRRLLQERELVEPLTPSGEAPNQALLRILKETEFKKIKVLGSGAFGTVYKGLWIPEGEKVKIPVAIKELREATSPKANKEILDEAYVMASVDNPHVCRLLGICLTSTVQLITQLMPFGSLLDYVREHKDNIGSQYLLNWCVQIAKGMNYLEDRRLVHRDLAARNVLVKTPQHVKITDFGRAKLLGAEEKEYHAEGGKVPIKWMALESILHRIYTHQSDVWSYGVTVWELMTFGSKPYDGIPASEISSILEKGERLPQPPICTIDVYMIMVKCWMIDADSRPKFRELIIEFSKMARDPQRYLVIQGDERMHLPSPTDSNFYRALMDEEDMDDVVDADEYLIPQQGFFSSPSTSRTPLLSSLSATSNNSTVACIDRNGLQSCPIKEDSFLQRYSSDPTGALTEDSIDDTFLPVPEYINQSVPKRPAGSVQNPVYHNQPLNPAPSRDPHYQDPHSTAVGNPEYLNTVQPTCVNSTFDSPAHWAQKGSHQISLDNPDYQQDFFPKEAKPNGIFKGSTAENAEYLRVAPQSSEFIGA
Chain of Ba/F3 EGFR Del19/T790M mutants (P00533 with tags, fused parts or gaps DEL746-750/T790M, form open): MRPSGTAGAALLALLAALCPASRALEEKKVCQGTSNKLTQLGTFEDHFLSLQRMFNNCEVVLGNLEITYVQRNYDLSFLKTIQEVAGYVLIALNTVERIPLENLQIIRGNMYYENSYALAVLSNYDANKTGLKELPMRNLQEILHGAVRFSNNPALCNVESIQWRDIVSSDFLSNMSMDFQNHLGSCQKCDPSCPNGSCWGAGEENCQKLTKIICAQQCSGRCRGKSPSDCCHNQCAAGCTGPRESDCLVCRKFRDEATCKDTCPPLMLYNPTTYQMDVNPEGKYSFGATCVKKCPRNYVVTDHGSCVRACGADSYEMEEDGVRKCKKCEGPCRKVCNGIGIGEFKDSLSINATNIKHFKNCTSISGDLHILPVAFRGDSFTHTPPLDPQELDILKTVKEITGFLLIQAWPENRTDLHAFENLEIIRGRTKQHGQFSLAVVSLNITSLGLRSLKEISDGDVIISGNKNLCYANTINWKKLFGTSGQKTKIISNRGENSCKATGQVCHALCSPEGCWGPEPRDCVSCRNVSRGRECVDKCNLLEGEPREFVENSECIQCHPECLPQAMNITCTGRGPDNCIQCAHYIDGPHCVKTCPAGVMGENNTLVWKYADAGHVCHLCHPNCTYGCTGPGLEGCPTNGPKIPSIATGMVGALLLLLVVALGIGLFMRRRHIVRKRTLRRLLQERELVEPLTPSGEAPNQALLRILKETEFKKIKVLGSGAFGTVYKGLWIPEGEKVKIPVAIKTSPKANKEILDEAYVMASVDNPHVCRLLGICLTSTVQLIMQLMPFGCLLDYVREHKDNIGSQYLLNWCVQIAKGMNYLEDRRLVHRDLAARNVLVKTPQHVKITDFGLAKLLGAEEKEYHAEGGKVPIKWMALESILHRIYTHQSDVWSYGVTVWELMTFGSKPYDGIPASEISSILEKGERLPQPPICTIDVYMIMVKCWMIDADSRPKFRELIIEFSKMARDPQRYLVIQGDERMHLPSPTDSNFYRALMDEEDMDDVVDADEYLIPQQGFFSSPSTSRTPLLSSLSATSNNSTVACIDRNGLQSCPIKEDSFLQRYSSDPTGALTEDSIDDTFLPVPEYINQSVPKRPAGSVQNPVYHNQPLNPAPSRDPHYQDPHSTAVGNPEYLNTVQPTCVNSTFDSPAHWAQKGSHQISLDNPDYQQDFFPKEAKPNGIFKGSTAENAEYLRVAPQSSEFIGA
Chain of Ba/F3 EGFR L858R/T790M/C797S mutants (P00533 whole entry T790M/C797S/L858R): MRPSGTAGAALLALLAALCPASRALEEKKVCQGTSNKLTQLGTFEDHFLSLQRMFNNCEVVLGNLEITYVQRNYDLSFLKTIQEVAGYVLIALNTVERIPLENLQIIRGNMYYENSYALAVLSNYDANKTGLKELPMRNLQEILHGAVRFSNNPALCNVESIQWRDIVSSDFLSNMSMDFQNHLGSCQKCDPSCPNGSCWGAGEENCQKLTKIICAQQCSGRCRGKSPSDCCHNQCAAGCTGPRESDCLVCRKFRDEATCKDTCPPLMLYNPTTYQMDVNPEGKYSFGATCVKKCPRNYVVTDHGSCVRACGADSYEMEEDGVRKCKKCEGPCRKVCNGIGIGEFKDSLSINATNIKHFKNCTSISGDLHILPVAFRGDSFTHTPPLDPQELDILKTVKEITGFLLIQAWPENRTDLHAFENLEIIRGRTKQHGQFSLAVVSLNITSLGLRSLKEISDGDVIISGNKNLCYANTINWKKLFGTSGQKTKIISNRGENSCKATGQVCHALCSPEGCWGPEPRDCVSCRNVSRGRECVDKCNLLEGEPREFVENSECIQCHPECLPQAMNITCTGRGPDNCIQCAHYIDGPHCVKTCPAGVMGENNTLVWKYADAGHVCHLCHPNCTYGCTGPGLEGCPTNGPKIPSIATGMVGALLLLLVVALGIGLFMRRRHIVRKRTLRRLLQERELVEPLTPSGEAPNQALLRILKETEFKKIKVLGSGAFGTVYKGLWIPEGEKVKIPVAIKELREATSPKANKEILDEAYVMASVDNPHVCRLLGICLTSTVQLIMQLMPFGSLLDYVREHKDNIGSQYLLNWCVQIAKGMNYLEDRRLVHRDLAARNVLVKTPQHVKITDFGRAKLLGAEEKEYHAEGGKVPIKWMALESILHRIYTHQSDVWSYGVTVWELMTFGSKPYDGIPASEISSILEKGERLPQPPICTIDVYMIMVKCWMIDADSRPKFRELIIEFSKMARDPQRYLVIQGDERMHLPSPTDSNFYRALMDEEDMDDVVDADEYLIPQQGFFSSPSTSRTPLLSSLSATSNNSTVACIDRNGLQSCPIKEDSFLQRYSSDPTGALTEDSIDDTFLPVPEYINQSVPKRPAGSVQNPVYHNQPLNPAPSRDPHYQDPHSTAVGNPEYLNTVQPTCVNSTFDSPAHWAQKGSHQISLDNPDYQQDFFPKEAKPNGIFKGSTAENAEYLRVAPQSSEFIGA
Chain of Ba/F3 EGFR Del19/T790M/C797S mutants (P00533 with tags, fused parts or gaps DEL746-750/T790M/C797S, form open): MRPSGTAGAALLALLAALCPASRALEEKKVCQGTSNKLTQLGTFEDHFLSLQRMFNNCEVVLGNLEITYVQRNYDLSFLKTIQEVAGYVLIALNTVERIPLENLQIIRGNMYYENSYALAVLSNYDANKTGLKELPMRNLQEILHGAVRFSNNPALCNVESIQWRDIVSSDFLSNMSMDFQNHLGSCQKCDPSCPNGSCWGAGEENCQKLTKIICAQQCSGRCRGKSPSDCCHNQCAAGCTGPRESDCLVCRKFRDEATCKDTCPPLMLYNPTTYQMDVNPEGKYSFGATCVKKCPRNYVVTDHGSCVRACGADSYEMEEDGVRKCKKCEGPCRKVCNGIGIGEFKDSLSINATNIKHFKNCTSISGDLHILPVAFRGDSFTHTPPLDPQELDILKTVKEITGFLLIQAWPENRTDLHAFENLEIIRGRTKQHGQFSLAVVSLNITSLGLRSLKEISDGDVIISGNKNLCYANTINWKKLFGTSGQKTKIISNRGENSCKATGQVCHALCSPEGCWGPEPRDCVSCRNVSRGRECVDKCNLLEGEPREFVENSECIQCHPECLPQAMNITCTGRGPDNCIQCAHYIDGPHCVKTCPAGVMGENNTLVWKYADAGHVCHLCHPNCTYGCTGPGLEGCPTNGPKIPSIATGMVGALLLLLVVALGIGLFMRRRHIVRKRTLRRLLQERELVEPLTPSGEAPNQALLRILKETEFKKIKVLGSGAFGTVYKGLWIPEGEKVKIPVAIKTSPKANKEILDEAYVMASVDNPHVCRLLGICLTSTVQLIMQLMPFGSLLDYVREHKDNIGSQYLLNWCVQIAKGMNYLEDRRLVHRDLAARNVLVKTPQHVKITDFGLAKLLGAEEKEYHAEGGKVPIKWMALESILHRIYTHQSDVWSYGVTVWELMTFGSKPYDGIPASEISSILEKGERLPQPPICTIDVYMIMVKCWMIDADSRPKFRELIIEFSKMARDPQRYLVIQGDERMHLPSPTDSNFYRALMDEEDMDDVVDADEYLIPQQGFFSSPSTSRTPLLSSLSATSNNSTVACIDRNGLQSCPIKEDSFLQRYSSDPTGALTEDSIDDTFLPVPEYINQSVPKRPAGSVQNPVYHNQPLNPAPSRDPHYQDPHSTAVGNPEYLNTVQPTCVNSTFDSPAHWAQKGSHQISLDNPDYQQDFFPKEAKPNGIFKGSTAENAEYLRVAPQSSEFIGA

As for `CCc1cc(Nc2ncc(Cl)c(Nc3ccc4nccnc4c3NS(C)(=O)=O)n2)c(OC)cc1N1CC2CCC1CN2C(C)C` (stereo not drawn) [Example B25, N-(6-((5-chloro-2-((5-ethyl-4-(5-isopropyl-2,5-diazabicyclo[2.2.2]octan-2-yl)-2-methoxyphenyl)amino)pyrimidin-4-yl)amino) 105 quinoxaline-5-yl)methanesulfonamide], the GI50 on Ba/F3 EGFR Wild-type came out at 829 nM; in test [1] it was 93 nM; in test [2], 83 nM; in test [3], 26 nM; in test [4], 16 nM; in test [5] it was 22 nM.

Consider `COc1cc(N2CCC(N3CCOCC3)CC2)c(C)cc1Nc1ncc(Cl)c(Nc2ccc3nccnc3c2NS(C)(=O)=O)n1` [Example A31, N-(6-((5-chloro-2-((2-methoxy-5-methyl-4-(4-morpholinopiperidin-1-yl)phenyl)amino)pyrimidin-4-yl)amino)quinoxalin-5-yl)methanesulfonamide], for which the GI50 came to 223 nM at Ba/F3 EGFR Wild-type; 79 nM in test [1]; 43 nM in test [2]; 39 nM in test [3]; 50 nM in test [4]; 131 nM in test [5].

In the case of `CCc1cc(Nc2ncc(Br)c(Nc3ccc4nccnc4c3N(C)S(C)(=O)=O)n2)c(OC)cc1N1CCC(N2CC3CCC2CN3C)CC1` (stereo not drawn) [Example A48, N-(6-((5-bromo-2-((5-ethyl-2-methoxy-4-(4-(5-methyl-2,5-diazabicyclo[2.2.2]octan-2-yl)piperidin-1-yl)phenyl)amino)pyrimidin-4-yl)amino)quinoxalin-5-yl)-N-methylmethanesulfonamide], the GI50 on Ba/F3 EGFR Wild-type worked out at 601 nM; in test [1], 112 nM; in test [2], 28 nM; in test [3], 9 nM; in test [4], 6 nM; in test [5] it was 17 nM.

As for `CCc1cc(Nc2ncc(Br)c(Nc3cccc(OC)c3NS(C)(=O)=O)n2)c(OC)cc1N1CCC(N2CCN(C)CC2)CC1` [Example C22, N-(2-((5-bromo-2-((5-ethyl-2-methoxy-4-(4-(4-methylpiperazin-1-yl)piperidin-1-yl)phenyl)amino)pyrimidin-4-yl)amino)-6-methoxyphenyl)methanesulfonamide], the GI50 at Ba/F3 EGFR Wild-type was found to be 738 nM; in test [1] it was 36 nM; in test [2], 25 nM; in test [3], 4 nM; in test [4] it was 5 nM; in test [5], 2 nM.
